Data published in patent publication US11590139B2, “Substituted aminopurine compounds, compositions thereof, and methods of treatment therewith” (Signal Pharmaceuticals, LLC, priority 2014, dated 2023).
pIC50: −log10 of the molar value.

System: Lox-IMVI melanoma cell line
Experiment: Lox-IMVI anti-proliferative assay (growth inhibition, Cell Titer-Glo)
Assay type: cell-based, human
Details: Homo sapiens; Lox-IMVI anti-proliferative assay, IC50 activity level; read-out: Activity
Procedure, shortened: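 Luminescence from cellular ATP measured viability at compound addition and again after 72 h of exposure (37 °C, 5% CO2, RPMI + 10% FBS). Doses spanned 0.5 nM to 10 μM in ten 3-fold steps with 0.2% DMSO. Values were fitted as % of DMSO-treated cells by sigmoidal dose-response.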

pIC50 | SMILES
< 6.00 | C[C@]1(C(N)=O)CC[C@H](n2c(Nc3c(F)cc(Cl)cc3F)nc3cnc(NC4CCCC4)nc32)CC1 [Example 489, (1r,4r)-4-(8-(4-chloro-2,6-difluorophenylamino)-2-(cyclopentylamino)-9H-purin-9-yl)-1-methylcyclohexanecarboxamide]
< 6.00 | C[C@]1(C(N)=O)CC[C@H](n2c(Nc3c(Cl)cc(Cl)cc3Cl)nc3cnc(NC4CCCC4)nc32)CC1 [Example 490, (1r,4r)-4-(2-(cyclopentylamino)-8-(2,4,6-trichlorophenylamino)-9H-purin-9-yl)-1-methylcyclohexanecarboxamide]
< 6.00 | C[C@]1(C(N)=O)CC[C@H](n2c(Nc3c(F)cc(F)cc3Cl)nc3cnc(NC4CCCC4)nc32)CC1 [Example 491, (1r,4r)-4-(8-(2-chloro-4,6-difluorophenylamino)-2-(cyclopentylamino)-9H-purin-9-yl)-1-methylcyclohexanecarboxamide]
6.00 to 6.30 | C[C@]1(C(N)=O)CC[C@H](n2c(Nc3c(F)cc(Cl)cc3Cl)nc3cnc(NC4CCCC4)nc32)CC1 [Example 492, (1r,4r)-4-(2-(cyclopentylamino)-8-(2,4-dichloro-6-fluorophenylamino)-9H-purin-9-yl)-1-methylcyclohexanecarboxamide]
< 6.00 | C[C@]1(C(N)=O)CC[C@H](n2c(Nc3c(Cl)cc(F)cc3Cl)nc3cnc(NC4CCCC4)nc32)CC1 [Example 493, (1r,4r)-4-(2-(cyclopentylamino)-8-(2,6-dichloro-4-fluorophenylamino)-9H-purin-9-yl)-1-methylcyclohexanecarboxamide]
< 6.00 | C[C@]1(C(N)=O)CC[C@H](n2c(Nc3c(F)cc(F)cc3F)nc3cnc(NC4CCCC4)nc32)CC1 [Example 494, (1r,4r)-4-(2-(cyclopentylamino)-8-(2,4,6-trifluorophenylamino)-9H-purin-9-yl)-1-methylcyclohexanecarboxamide]
> 6.60 | C[C@@H]1COCC[C@H]1Nc1ncc2nc(Nc3c(Cl)cc(C#N)cc3Cl)n([C@H]3CC[C@@H](C(N)=O)CC3)c2n1 [Example 495, (1S,4s)-4-(8-(2,6-dichloro-4-cyanophenylamino)-2-((3S,4R)-3-methyltetrahydro-2H-pyran-4-ylamino)-9H-purin-9-yl)cyclohexanecarboxamide]
6.30 to 6.60 | C[C@H]1COCC[C@@H]1Nc1ncc2nc(Nc3c(Cl)cc(C#N)cc3Cl)n([C@H]3CC[C@@H](C(N)=O)CC3)c2n1 [Example 496, (1R,4s)-4-(8-(2,6-dichloro-4-cyanophenylamino)-2-((3R,4S)-3-methyltetrahydro-2H-pyran-4-ylamino)-9H-purin-9-yl)cyclohexanecarboxamide]
> 6.60 | C[C@H]1COCC[C@H]1Nc1ncc2nc(Nc3c(Cl)cc(C#N)cc3Cl)n([C@H]3CC[C@@H](C(N)=O)CC3)c2n1 [Example 497, (1S,4s)-4-(8-(2,6-dichloro-4-cyanophenylamino)-2-((3R,4R)-3-methyltetrahydro-2H-pyran-4-ylamino)-9H-purin-9-yl)cyclohexanecarboxamide]
6.30 to 6.60 | C[C@@H]1COCC[C@@H]1Nc1ncc2nc(Nc3c(Cl)cc(C#N)cc3Cl)n([C@H]3CC[C@@H](C(N)=O)CC3)c2n1 [Example 498, (1R,4s)-4-(8-(2,6-dichloro-4-cyanophenylamino)-2-((3S,4S)-3-methyltetrahydro-2H-pyran-4-ylamino)-9H-purin-9-yl)cyclohexanecarboxamide]
> 6.60 | C[C@@H]1COCC[C@H]1Nc1ncc2nc(Nc3c(Cl)cc(Cl)cc3Cl)n([C@H]3CC[C@@H](C(N)=O)CC3)c2n1 [Example 499, (1S,4s)-4-(2-((3S,4R)-3-methyltetrahydro-2H-pyran-4-ylamino)-8-(2,4,6-trichlorophenylamino)-9H-purin-9-yl)cyclohexanecarboxamide]
6.00 to 6.30 | C[C@H]1COCC[C@@H]1Nc1ncc2nc(Nc3c(Cl)cc(Cl)cc3Cl)n([C@H]3CC[C@@H](C(N)=O)CC3)c2n1 [Example 500, (1R,4s)-4-(2-((3R,4S)-3-methyltetrahydro-2H-pyran-4-ylamino)-8-(2,4,6-trichlorophenylamino)-9H-purin-9-yl)cyclohexanecarboxamide]
6.30 to 6.60 | C[C@H]1COCC[C@H]1Nc1ncc2nc(Nc3c(Cl)cc(Cl)cc3Cl)n([C@H]3CC[C@@H](C(N)=O)CC3)c2n1 [Example 501, (1S,4s)-4-(2-((3R,4R)-3-methyltetrahydro-2H-pyran-4-ylamino)-8-(2,4,6-trichlorophenylamino)-9H-purin-9-yl)cyclohexanecarboxamide]
6.30 to 6.60 | C[C@@H]1COCC[C@@H]1Nc1ncc2nc(Nc3c(Cl)cc(Cl)cc3Cl)n([C@H]3CC[C@@H](C(N)=O)CC3)c2n1 [Example 502, (1R,4s)-4-(2-((3S,4S)-3-methyltetrahydro-2H-pyran-4-ylamino)-8-(2,4,6-trichlorophenylamino)-9H-purin-9-yl)cyclohexanecarboxamide]
> 6.60 | C[C@@H]1COCC[C@H]1Nc1ncc2nc(Nc3c(F)cc(Cl)cc3Cl)n([C@H]3CC[C@@H](C(N)=O)CC3)c2n1 [Example 503, (1S,4s)-4-(8-(2,4-dichloro-6-fluorophenylamino)-2-((3S,4R)-3-methyltetrahydro-2H-pyran-4-ylamino)-9H-purin-9-yl)cyclohexanecarboxamide]
6.00 to 6.30 | C[C@H]1COCC[C@@H]1Nc1ncc2nc(Nc3c(F)cc(Cl)cc3Cl)n([C@H]3CC[C@@H](C(N)=O)CC3)c2n1 [Example 504, (1R,4s)-4-(8-(2,4-dichloro-6-fluorophenylamino)-2-((3R,4S)-3-methyltetrahydro-2H-pyran-4-ylamino)-9H-purin-9-yl)cyclohexanecarboxamide]
6.30 to 6.60 | C[C@H]1COCC[C@H]1Nc1ncc2nc(Nc3c(F)cc(Cl)cc3Cl)n([C@H]3CC[C@@H](C(N)=O)CC3)c2n1 [Example 505, (1S,4s)-4-(8-(2,4-dichloro-6-fluorophenylamino)-2-((3R,4R)-3-methyltetrahydro-2H-pyran-4-ylamino)-9H-purin-9-yl)cyclohexanecarboxamide]
6.30 to 6.60 | C[C@@H]1COCC[C@@H]1Nc1ncc2nc(Nc3c(F)cc(Cl)cc3Cl)n([C@H]3CC[C@@H](C(N)=O)CC3)c2n1 [Example 506, (1R,4s)-4-(8-(2,4-dichloro-6-fluorophenylamino)-2-((3S,4S)-3-methyltetrahydro-2H-pyran-4-ylamino)-9H-purin-9-yl)cyclohexanecarboxamide]
< 6.00 | C[C@H]1COCC[C@@H]1Nc1ncc2nc(Nc3c(F)cc(Cl)cc3F)n([C@H]3CC[C@@H](C(N)=O)CC3)c2n1 [Example 507, (1R,4s)-4-(8-(4-chloro-2,6-difluorophenylamino)-2-((3R,4S)-3-methyltetrahydro-2H-pyran-4-ylamino)-9H-purin-9-yl)cyclohexanecarboxamide]
6.00 to 6.30 | C[C@H]1COCC[C@H]1Nc1ncc2nc(Nc3c(F)cc(Cl)cc3F)n([C@H]3CC[C@@H](C(N)=O)CC3)c2n1 [Example 508, (1S,4s)-4-(8-(4-chloro-2,6-difluorophenylamino)-2-((3R,4R)-3-methyltetrahydro-2H-pyran-4-ylamino)-9H-purin-9-yl)cyclohexanecarboxamide]
6.00 to 6.30 | C[C@@H]1COCC[C@@H]1Nc1ncc2nc(Nc3c(F)cc(Cl)cc3F)n([C@H]3CC[C@@H](C(N)=O)CC3)c2n1 [Example 509, (1R,4s)-4-(8-(4-chloro-2,6-difluorophenylamino)-2-((3S,4S)-3-methyltetrahydro-2H-pyran-4-ylamino)-9H-purin-9-yl)cyclohexanecarboxamide]
